Measurements as given in paper PMC9779817, “Identification of New Purpuroine Analogues from the Arctic Echinodermata Pteraster militaris That Inhibit FLT3-ITD^+ AML Cell Lines” (International Journal of Molecular Sciences, 2022).
Converted amounts (≈) assume the structure as drawn.

Assays:
MV-4-11 = assay: Viability screening and IC50 determination, MTS assay; type: cell-based, human; set-up: key to Activity at ≤50 µM: Active: active compound was defined as ≤50% survival at one of the concentrations; Inactive; settings: for Activity at ≤50 µM: MV-4-11, acute myeloid leukemia, screened at 10 and 50 µM, 72 h
Procedure: (§1) All cell lines were purchased from ATCC (Manassa, VA, USA) except MOLM-13 that was purchased from Leibniz Institute DSMZ (Braunschweig, Germany). Viability screening of compounds 1–3 at 10 and 50µM was performed by a colorimetric MTS assay. The cells were seeded into 96-well microtiter plates (Nunclon^TM Delta Surface, Thermo Scientific, Roskilde, Denmark) in RPMI-1640 supplemented with 10% FBS and 10µg/mL Gentamycin (assay media). The adherent cell lines A2058, HaCat and HT29 were seeded in a density of 2000 cells/well, MRC5 were seeded in a density of 4000 cells/well and SK-BR-3 and MDA-MB-468 were seeded in a density of 5000 cells/well. After incubation for 24 h in 37 °C and 5% CO2 the media was discarded and replaced by samples diluted in assay media, negative control (100% cell survival, 100% assay media) and positive control (0% cell survival, 90% assay media supplemented with 10% DMSO). The suspension cell lines MV-4-11 and MOLT-4 were directly seeded in a density of 10,000 cells/well and MOLM-13 and THP-1 were seeded in a density of 20,000 cells/well in assay media supplemented with sample. All samples were added in triplicates. Cells and samples were incubated for a total of 72 h (HepG2 cells were incubated for 24 h) at 37 °C and 5% CO2. Thereafter, 10% CellTiter 96®AQueous One Solution Reagent (G3581, Promega) containing tetrazolium compound [3-(4,5-dimethylthiazol-2-yl)-5-(3-carboxymethoxyphenyl)-2-(4-sulfophenyl)-2H-tetrazolium] and phenazine ethosulfate were added. After 1 h incubation the absorbances was measured at 485 nm with a DTX 880 and viability was calculated.

A2058 = assay: Viability screening, human melanoma cell line; type: cell-based; set-up: key: Active: active compound was defined as ≤50% survival at one of the concentrations; Inactive; settings: screened at 10 and 50 µM, 72 h
Procedure: The flash fractions of P. militaris were assayed for activity against the human melanoma cancer cell line A2058 at 50 µg/mL. […] The flash fractions were also assayed against the human pathogenic bacterial strains Staphylococcus aureus, Enterococcus faecalis, Escherichia coli, Pseudomonas aeruginosa and Streptococcus agalactiae (Gr. B).
as §1

HT29 = assay: Viability screening, colorimetric MTS assay; type: cell-based; set-up: key: Active: active compound was defined as ≤50% survival at one of the concentrations; Inactive; settings: HT29, colon cancer; screened at 10 and 50 µM; 72 h
Procedure: as §1

HaCat = assay: Viability screening, colorimetric MTS assay; type: cell-based; set-up: key: Active: active compound was defined as ≤50% survival at one of the concentrations; Inactive; settings: keratinocytes (non-cancerous), screened at 10 and 50 µM, 72 h
Procedure: as §1

HepG2 = assay: Viability screening, colorimetric MTS assay; type: cell-based; set-up: key: Active: active compound was defined as ≤50% survival at one of the concentrations; Inactive; settings: HepG2, liver hepatocellular carcinoma; screened at 10 and 50 µM; 24 h
Procedure: as §1

MDA-MB-468 = assay: Viability screening, colorimetric MTS assay; type: cell-based; set-up: key: Active: active compound was defined as ≤50% survival at one of the concentrations; Inactive; settings: MDA-MB-468, breast cancer; screened at 10 and 50 µM; 72 h
Procedure: as §1

MOLT-4 = assay: Viability screening, colorimetric MTS assay; type: cell-based; set-up: key: Active: active compound was defined as ≤50% survival at one of the concentrations; Inactive; settings: MOLT-4, acute lymphoblastic leukemia; screened at 10 and 50 µM; 72 h
Procedure: as §1

MRC5 = assay: Viability screening, colorimetric MTS assay; type: cell-based; set-up: key: Active: active compound was defined as ≤50% survival at one of the concentrations; Inactive; settings: MRC5, lung fibroblasts (non-cancerous); screened at 10 and 50 µM; 72 h
Procedure: as §1

SK-BR-3 = assay: Viability screening, colorimetric MTS assay; type: cell-based; set-up: key: Active: active compound was defined as ≤50% survival at one of the concentrations; Inactive; settings: SK-BR-3, breast cancer; screened at 10 and 50 µM; 72 h
Procedure: as §1

THP-1 = assay: Viability screening, colorimetric MTS assay; type: cell-based; set-up: key: Active: active compound was defined as ≤50% survival at one of the concentrations; Inactive; settings: THP-1, acute monocytic leukemia; screened at 10 and 50 µM; 72 h
Procedure: as §1

MOLM-13 = assay: Viability screening, colorimetric MTS assay; type: cell-based, human; set-up: key: Active: active compound was defined as ≤50% survival at one of the concentrations; Inactive; settings: MOLM-13, acute myeloid leukemia; screened at 10 and 50 µM; 72 h
Procedure: as §1

MV-4-11 cells [1] = assay: Cell cycle analysis (PI staining, flow cytometry); type: cell-based, human; settings: 24 h, compared to control
Procedure: MV-4-11 cells were seeded into 24-well plates (Nunclon^TM Delta Surface, Thermo Scientific) in a density of 1 × 10^6 cells/mL supplemented with 26 µM, 52 µM or 104 µM of 1. The cells were incubated for 24 h and thereafter fixed in ice cold 70% EtOH. After washing the cells were stained with FxCycle™ PI/RNase Staining Solution (Invitrogen, MA, USA) according to manufacturer’s instructions. The cells were analysed by a CytoFLEX Flow cytometer (Beckman Coulter, CA, USA) and cell cycle phase determined in CytExpert software (Beckman Coulter).

MV-4-11 cells [2] = assay: Apoptosis assay (annexin V/PI staining, flow cytometry); type: cell-based, human; settings: 26 µM (1 × IC50); 24 h
Procedure: To further investigate the cell death pathway activated by 1, an apoptosis assay was performed and the ability of 1 to induce apoptosis and/or necrosis in MV-4-11 cell line was evaluated by annexin V/PI staining (Figure 5). The cells were divided into 3 different populations: annexin V−/PI− (healthy cells), annexin V+/PI− (apoptotic cells) and annexin V+/PI+ (late apoptotic/necrotic cells). […] However, after 24 h and 48 h of incubation at the highest concentration of compound (104 µM), no increase in apoptotic cells were seen when compared to cells incubated with 52 µM.
MV-4-11 cells were seeded into 24-well plates (Nunclon^TM Delta Surface, Thermo Scientific) at a density of 1 × 10^6 cells/mL supplemented with 26 µM, 52 µM or 104 µM of 1 and incubated for 24 or 48 h at 37 °C an 5% CO2. Apoptotic and necrotic cells were labelled according to manufacturer’s instructions (Alexa Fluor^TM 488 Annexin V/Dead Cell Apoptosis Kit, Invitrogen) and analysed by a CytoFLEX Flow cytometer and CytExpert software (Beckman Coulter).

FLT3 WT = biological target: T1, FLT3 WT (Homo sapiens, UniProt P36888); assay: Kinase binding assay (FRET tracer competition); settings: concentrations tested up to 10 μM
T1 construct: purchased ThermoFisher Scientific PV3182
T1 sequence (P36888 564-993 limits assumed): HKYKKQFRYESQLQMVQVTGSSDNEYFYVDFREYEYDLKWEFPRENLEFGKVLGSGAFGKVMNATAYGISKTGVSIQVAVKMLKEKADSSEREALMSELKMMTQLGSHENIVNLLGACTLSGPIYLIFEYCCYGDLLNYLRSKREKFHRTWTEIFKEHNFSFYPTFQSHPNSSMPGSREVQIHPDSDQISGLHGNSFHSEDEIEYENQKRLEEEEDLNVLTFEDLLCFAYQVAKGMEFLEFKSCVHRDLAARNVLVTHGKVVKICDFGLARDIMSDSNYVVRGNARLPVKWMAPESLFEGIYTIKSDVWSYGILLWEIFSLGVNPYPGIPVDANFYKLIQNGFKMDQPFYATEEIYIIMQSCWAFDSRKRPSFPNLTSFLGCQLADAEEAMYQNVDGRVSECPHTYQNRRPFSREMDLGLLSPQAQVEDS
Procedure: (§2) A FRET signal is generated between an Europium-labelled tag, on the FLT3 kinase, and a fluorescent tracer with high binding affinity for the FLT3 active site.
(§3) Anti-GST-Eu-tagged monoclonal antibodies (anti-GST AB) were purchase from Cisbio (PerkinElmer Norge AS, catalogue number 61GSTKLA) and reconstituted in water at a final concentration of 333 nM. White, non-binding, round bottom 384 well microplates (reference number 4513) were purchased from Corning (Corning Inc, Kennebunk, ME, USA). The compounds were serially diluted into DMSO to 12 different concentrations. Each of these compound-containing DMSO solutions was further diluted 33 times in assay buffer A (50 mM HEPES pH 7.5, 10 mM MgCl2, 1 mM ethylene glycol-bis(β-aminoethyl ether)-N,N,N′,N′-tetraacetic acid (EGTA) and 0.01% BRIJ-35) and 5 μL of these solutions were dispensed in triplicates in 384 well plate. […] Fluorescence measurements were made using a EnVision 2104 Multilabel reader, (PerkinElmer, US), excitation wavelength was set to 340 nm and emission was read at both 615 nm (8.5 nm bandwidth) and 665 nm (7.5 nm bandwidth) over […] between excitation and emission measurements.

FLT3-ITD mutant = FLT3-ITD mutant (Homo sapiens, UniProt P36888); type: binding; settings: concentrations tested up to 10 μM
Procedure: as §2, §3

Rhodotrula sp. = assay: Antifungal growth inhibition assay; type: cell-based; settings: positive control
Procedure: (§4) The yeast strains Candida albicans (ATCC 10231) and Rhodotrula sp. and the Aurobasidium pollulans mold, were cultivated on potato dextrose agar with 2% glucose at room temperature. Fungal spores were dissolved in potato dextrose broth (Difco Laboratories, USA) and the cell concentration was determined and adjusted after counting in a Bürker chamber. […] The assay plates were incubated in a moist dark chamber at 37 °C. […] Growth inhibition was determined microscopically after 42 h incubation.

Aurobasidium pollulans = assay: Antifungal growth inhibition assay; type: cell-based; settings: positive control
Procedure: as §4

Row | SMILES | Activity at ≤50 µM (MV-4-11) | Activity at ≤50 µM (A2058) | Activity at ≤50 µM (HT29) | Activity at ≤50 µM (HaCat) | Activity at ≤50 µM (HepG2) | Activity at ≤50 µM (MDA-MB-468) | Activity at ≤50 µM (MOLT-4) | Activity at ≤50 µM (MRC5) | Activity at ≤50 µM (SK-BR-3) | Activity at ≤50 µM (THP-1) | Activity at ≤50 µM (MOLM-13) | further results
1 | COC(=O)[C@@H](CCOc1c(Cl)cc(Br)cc1Br)[N+](C)(C)C [compound 2, purpuroine L] | I | I | I | I | I | I | I | I | I | I | I | 
2 | COC(=O)[C@@H](CCOc1c(Br)cc(Br)cc1Br)[N+](C)(C)C [compound 1, purpuroine K] | Active | I | I | I | I | I | I | I ^2 | I | I | Active | IC50 (MV-4-11; Homo sapiens, MV4-11, MV-4-11 cell line, read-out: IC50 against MV-4-11): 26 ± 1.2 µM; decrease of cells entering G2/M-phase (MV-4-11 cells [1]; 52 µM): 26%; decrease of cells entering the S-phase (MV-4-11 cells [1]; 52 µM): 23%; increase in the number of cells arrested in G0/G1 phase (MV-4-11 cells [1]; 52 µM): 11%; decrease of cells entering G2/M-phase (MV-4-11 cells [1]; 104 µM): 55%; decrease of cells entering the S-phase (MV-4-11 cells [1]; 104 µM): 38%; increase in the number of cells arrested in G0/G1 phase (MV-4-11 cells [1]; 104 µM): 19%; increase in percentage of apoptotic cells compared to control (MV-4-11 cells [2]): 94%; binding to FLT3 WT active site (FLT3 WT): does not bind; binding to FLT-ITD mutant active site (FLT3-ITD mutant): does not bind
3 | COC(=O)[C@@H](CCOc1c(Cl)cc(Br)cc1Cl)[N+](C)(C)C [compound 3, purpuroine M] | I | I | I | I | I | I | I | I | I | I | I | 
4 | C[C@@H]1[C@H](O)[C@@H](C)/C=C/C=C/C=C/C=C/C=C/C=C/C=C/[C@H](O[C@@H]2O[C@H](C)[C@@H](O)[C@H](N)[C@@H]2O)C[C@@H]2O[C@](O)(C[C@@H](O)C[C@@H](O)[C@H](O)CC[C@@H](O)C[C@@H](O)CC(=O)O[C@H]1C)C[C@H](O)[C@H]2C(=O)O [amphotericin-B] |  |  |  |  |  |  |  |  |  |  |  | MIC (Rhodotrula sp.): 8.7 µM (≈ 8.04 µg/mL); MIC (Aurobasidium pollulans): 8.7 µM (≈ 8.04 µg/mL)
